Source: patent US5057493A, “Novel antibiotics R106” (priority 1988, dated 1991)
Starred links: 1 amine or outer side, 2 acyl side, 3 side chain; linkers in the order of their positions; H or OH if unused. Non-standard residues stand in square brackets, D forms with d. Residues, ends and D or L forms follow the SMILES beside them. ξ: configuration not given here. X2 = CN(C(C(=O)[*:2])C(O)c1ccccc1)[*:1]; X4 = CC(C(=O)O)C(C(=O)[*:2])N(C)[*:1]; ξNMeVal(3-OH) = CNC(C(=O)O)C(C)(C)O; X3 = C=C(C)C(C(=O)[*:2])N(C)[*:1]; X5 = CC(CO)C(C(=O)[*:2])N(C)[*:1]; X6 = CC(C)=C(C(=O)[*:2])N(C)[*:1]; NMeF = CN[CH](Cc1ccccc1)C(=O)O; X1 = CCC(C)C(O[*:1])C(=O)[*:2]; NMeV = CN[CH](C(=O)O)C(C)C; Hiv = CC(C)[CH](O)C(=O)O

Legend:
[1] = test system: Candida glabrata TIMM 1062; assay: MIC by agar dilution method, casitone agar; type: cell-based; details: Table 5
Procedure: (§1) The minimum inhibitory concentration (MIC) of each antibiotic against various fungi was determined by the agar dilution method using casitone agar medium (2.0% glucose, 0.9% bacto-casitone, 1.0% yeast extract, 0.1% KH2 PO4, 0.1% Na2 HPO4, 1.0% sodium citrate, 2.0% agar: concentrations are all by w/v).
(§2) Each minimum growth inhibitory concentration was determined after culturing at 27° C. for 4 days.

[2] = test system: Cryptococcus neoformans TIMM 0354; assay: MIC by agar dilution method, casitone agar; type: cell-based; details: Table 5
Procedure: as §1, §2

[3] = test system: Candida albicans TIMM 0136; assay: MIC by agar dilution method, casitone agar; type: cell-based; details: Table 5
Procedure: as §1, with “The antibiotics R106 of the present invention are active against various fungi including pathogenic fungi. The” for “The”

[4] = test system: Candida albicans TIMM 0171; assay: MIC by agar dilution method, casitone agar; type: cell-based; details: Table 5
Procedure: as §1, with “The antibiotics R106 of the present invention are active against various fungi including pathogenic fungi. The” for “The”

[5] = test system: Candida albicans TIMM 1768; assay: MIC by agar dilution method, casitone agar; type: cell-based; details: Table 5
Procedure: as §1, with “The antibiotics R106 of the present invention are active against various fungi including pathogenic fungi. The” for “The”

Candida kefyr TIMM 0301 = assay: MIC by agar dilution method, casitone agar; type: cell-based; details: Table 5
Procedure: as §1, with “The antibiotics R106 of the present invention are active against various fungi including pathogenic fungi. The” for “The”

[6] = 50% lethal dose (LD50) in mice; type: in vivo
Description: All of the antibiotics R106 show low toxicity. The results of 50% lethal dose (LD50) obtained when each of representative compounds of the present invention was given to mice intravenously, intraperitoneally and orally are shown in Table 7.

CCC(C)C1NC(=O)C2CCCN2C(=O)C(Cc2ccccc2)N(C)C(=O)C(Cc2ccccc2)NC(=O)C(C(C)C)N(C)C(=O)C(C(C)C)OC(=O)C(C(C)C)N(C)C(=O)C(CC(C)C)NC(=O)C(C(C)C)N(C)C1=O (stereo not drawn) [Compound 11] (cyclo(F[NMeF]PI[NMeV]L[NMeV][Hiv][NMeV]); configuration not given here)
minimum inhibitory concentration (MIC) [1]: > 25 | minimum inhibitory concentration (MIC) [2]: > 25 | minimum inhibitory concentration (MIC) [3]: 1.56 | minimum inhibitory concentration (MIC) [4]: 1.56 | minimum inhibitory concentration (MIC) [5]: 1.56 | minimum inhibitory concentration (MIC) (Candida kefyr TIMM 0301): 6.25

CCC(C)C1NC(=O)C2CCCN2C(=O)C(Cc2ccccc2)NC(=O)C(Cc2ccccc2)NC(=O)C(C(C)C)N(C)C(=O)C(C(C)CC)OC(=O)C(C(C)C)N(C)C(=O)C(CC(C)C)NC(=O)C(C(C)C)N(C)C1=O (stereo not drawn) [Compound 13] (cyclo([X1][NMeV]FFPI[NMeV]L[NMeV]); configuration not given here)
minimum inhibitory concentration (MIC) [1]: > 25 | minimum inhibitory concentration (MIC) [2]: > 25 | minimum inhibitory concentration (MIC) [3]: 6.25 | minimum inhibitory concentration (MIC) [4]: 12.5 | minimum inhibitory concentration (MIC) [5]: 12.5 | minimum inhibitory concentration (MIC) (Candida kefyr TIMM 0301): 25

C=C(C)C1C(=O)OC(C(C)CC)C(=O)N(C)C(C(C)C)C(=O)NC(Cc2ccccc2)C(=O)N(C)C(Cc2ccccc2)C(=O)N2CCCC2C(=O)NC(C(C)CC)C(=O)N(C)C(C(C)C)C(=O)NC(CC(C)C)C(=O)N1C (stereo not drawn) [Compound 14] (cyclo([X3][X1][NMeV]F[NMeF]PI[NMeV]L); configuration not given here)
minimum inhibitory concentration (MIC) [1]: 12.5 | minimum inhibitory concentration (MIC) [2]: > 25 | minimum inhibitory concentration (MIC) [3]: 1.56 | minimum inhibitory concentration (MIC) [4]: 1.56 | minimum inhibitory concentration (MIC) [5]: 12.5 | minimum inhibitory concentration (MIC) (Candida kefyr TIMM 0301): 6.25

CCC(C)C1NC(=O)C2CCCN2C(=O)C(Cc2ccccc2)N(C)C(=O)C(Cc2ccccc2)NC(=O)C(C(C)C)N(C)C(=O)C(C(C)CC)OC(=O)C(C(O)c2ccccc2)N(C)C(=O)C(CC(C)C)NC(=O)C(C(C)C)N(C)C1=O (stereo not drawn) [Compound 15] (cyclo([X2][X1][NMeV]F[NMeF]PI[NMeV]L); configuration not given here)
minimum inhibitory concentration (MIC) [1]: > 25 | minimum inhibitory concentration (MIC) [2]: 25 | minimum inhibitory concentration (MIC) [3]: 12.5 | minimum inhibitory concentration (MIC) [4]: 25 | minimum inhibitory concentration (MIC) [5]: 25 | minimum inhibitory concentration (MIC) (Candida kefyr TIMM 0301): > 25

CCC(C)C1NC(=O)C2CCCN2C(=O)C(Cc2ccccc2)N(C)C(=O)C(Cc2ccccc2)NC(=O)C(C(C)C)N(C)C(=O)C(C(C)CC)OC(=O)C(C(C)C)N(C)C(=O)C(CC(C)C)NC(=O)C(C(C)C)N(C)C1=O (stereo not drawn) [Compound 7] (cyclo([X1][NMeV]F[NMeF]PI[NMeV]L[NMeV]); configuration not given here)
minimum inhibitory concentration (MIC) [1]: > 25 | minimum inhibitory concentration (MIC) [2]: > 25 | minimum inhibitory concentration (MIC) [3]: 3.12 | minimum inhibitory concentration (MIC) [4]: 1.56 | minimum inhibitory concentration (MIC) [5]: 3.12 | minimum inhibitory concentration (MIC) (Candida kefyr TIMM 0301): 25 | LD50 ([6]; i.p.): > 200 mg/kg | LD50 ([6]; i.v.): > 100 mg/kg | LD50 ([6]; p.o.): > 200 mg/kg

CCC(C)C1NC(=O)C2CCCN2C(=O)C(Cc2ccccc2)N(C)C(=O)C(Cc2ccccc2)NC(=O)C(C(C)C)N(C)C(=O)C(C(C)CC)OC(=O)C(C(C)C(=O)O)N(C)C(=O)C(CC(C)C)NC(=O)C(C(C)C)N(C)C1=O (stereo not drawn) [Compound 10] (cyclo([X4][X1][NMeV]F[NMeF]PI[NMeV]L); configuration not given here)
minimum inhibitory concentration (MIC) [1]: 3.12 | minimum inhibitory concentration (MIC) [2]: 25 | minimum inhibitory concentration (MIC) [3]: 0.78 | minimum inhibitory concentration (MIC) [4]: 0.78 | minimum inhibitory concentration (MIC) [5]: 12.5 | minimum inhibitory concentration (MIC) (Candida kefyr TIMM 0301): 3.12

CCC(C)C1NC(=O)C2CCCN2C(=O)C(C(O)c2ccccc2)N(C)C(=O)C(Cc2ccccc2)NC(=O)C(C(C)C)N(C)C(=O)C(C(C)CC)OC(=O)C(C(C)(C)O)N(C)C(=O)C(CC(C)C)NC(=O)C(C(C)C)N(C)C1=O (stereo not drawn) [Compound 5] (cyclo([X2]PI[NMeV]L[ξNMeVal(3-OH)][X1][NMeV]F); configuration not given here)
minimum inhibitory concentration (MIC) [1]: 0.20 | minimum inhibitory concentration (MIC) [2]: 3.12 | minimum inhibitory concentration (MIC) [3]: ≤ 0.05 | minimum inhibitory concentration (MIC) [4]: ≤ 0.05 | minimum inhibitory concentration (MIC) [5]: ≤ 0.05 | minimum inhibitory concentration (MIC) (Candida kefyr TIMM 0301): 0.20 | LD50 ([6]; i.p.): > 200 mg/kg | LD50 ([6]; i.v.): > 100 mg/kg | LD50 ([6]; p.o.): > 200 mg/kg

CCC(C)C1NC(=O)C2CCCN2C(=O)C(Cc2ccccc2)N(C)C(=O)C(Cc2ccccc2)NC(=O)C(C(C)C)N(C)C(=O)C(C(C)CC)OC(=O)C(C(C)C)N(C)C(=O)C(CC(C)C)NC(=O)C(C(C)C)NC1=O (stereo not drawn) [Compound 16] (cyclo([X1][NMeV]F[NMeF]PIVL[NMeV]); configuration not given here)
minimum inhibitory concentration (MIC) [1]: > 25 | minimum inhibitory concentration (MIC) [2]: > 25 | minimum inhibitory concentration (MIC) [3]: 3.12 | minimum inhibitory concentration (MIC) [4]: 1.56 | minimum inhibitory concentration (MIC) [5]: 25 | minimum inhibitory concentration (MIC) (Candida kefyr TIMM 0301): 3.12

CCC(C)C1NC(=O)C2CCCN2C(=O)C(Cc2ccccc2)N(C)C(=O)C(Cc2ccccc2)NC(=O)C(C(C)C)N(C)C(=O)C(C(C)CC)OC(=O)C(C(C)(C)O)N(C)C(=O)C(CC(C)C)NC(=O)C(C(C)C)NC1=O (stereo not drawn) [Compound 6] (cyclo([ξNMeVal(3-OH)][X1][NMeV]F[NMeF]PIVL); configuration not given here)
minimum inhibitory concentration (MIC) [1]: 1.56 | minimum inhibitory concentration (MIC) [2]: 25 | minimum inhibitory concentration (MIC) [3]: 0.78 | minimum inhibitory concentration (MIC) [4]: 0.39 | minimum inhibitory concentration (MIC) [5]: 0.39 | minimum inhibitory concentration (MIC) (Candida kefyr TIMM 0301): 0.39

CCC(C)C1NC(=O)C2CCCN2C(=O)C(Cc2ccccc2)N(C)C(=O)C(Cc2ccccc2)NC(=O)C(C(C)C)N(C)C(=O)C(C(C)CC)OC(=O)C(=C(C)C)N(C)C(=O)C(CC(C)C)NC(=O)C(C(C)C)N(C)C1=O (stereo not drawn) [Compound 18] (cyclo([X6][X1][NMeV]F[NMeF]PI[NMeV]L); configuration not given here)
minimum inhibitory concentration (MIC) [1]: > 25 | minimum inhibitory concentration (MIC) [2]: > 25 | minimum inhibitory concentration (MIC) [3]: 6.25 | minimum inhibitory concentration (MIC) [4]: 3.12 | minimum inhibitory concentration (MIC) [5]: 25 | minimum inhibitory concentration (MIC) (Candida kefyr TIMM 0301): 25

CCC(C)C1NC(=O)C2CCCN2C(=O)C(Cc2ccccc2)N(C)C(=O)C(Cc2ccccc2)NC(=O)C(C(C)C)N(C)C(=O)C(C(C)CC)OC(=O)C(Cc2ccccc2)N(C)C(=O)C(CC(C)C)NC(=O)C(C(C)C)N(C)C1=O (stereo not drawn) [Compound 17] (cyclo([X1][NMeV]F[NMeF]PI[NMeV]L[NMeF]); configuration not given here)
minimum inhibitory concentration (MIC) [1]: > 25 | minimum inhibitory concentration (MIC) [2]: > 25 | minimum inhibitory concentration (MIC) [3]: 12.5 | minimum inhibitory concentration (MIC) [4]: 25 | minimum inhibitory concentration (MIC) [5]: > 25 | minimum inhibitory concentration (MIC) (Candida kefyr TIMM 0301): > 25

CCC(C)C1NC(=O)C2CCCN2C(=O)C(Cc2ccccc2)N(C)C(=O)C(Cc2ccccc2)NC(=O)C(C(C)C)N(C)C(=O)C(C(C)CC)OC(=O)C(C(C)C)NC(=O)C(CC(C)C)NC(=O)C(C(C)C)N(C)C1=O (stereo not drawn) [Compound 8] (cyclo([X1][NMeV]F[NMeF]PI[NMeV]LV); configuration not given here)
minimum inhibitory concentration (MIC) [1]: > 25 | minimum inhibitory concentration (MIC) [2]: > 25 | minimum inhibitory concentration (MIC) [3]: 1.56 | minimum inhibitory concentration (MIC) [4]: 1.56 | minimum inhibitory concentration (MIC) [5]: 12.5 | minimum inhibitory concentration (MIC) (Candida kefyr TIMM 0301): > 25

CCC(C)C1NC(=O)C2CCCN2C(=O)C(Cc2ccccc2)N(C)C(=O)C(Cc2ccccc2)NC(=O)C(C(C)C)N(C)C(=O)C(C(C)CC)OC(=O)C(C(C)CO)N(C)C(=O)C(CC(C)C)NC(=O)C(C(C)C)N(C)C1=O (stereo not drawn) [Compound 4] (cyclo([X5][X1][NMeV]F[NMeF]PI[NMeV]L); configuration not given here)
minimum inhibitory concentration (MIC) [1]: 1.56 | minimum inhibitory concentration (MIC) [2]: 25 | minimum inhibitory concentration (MIC) [3]: 0.20 | minimum inhibitory concentration (MIC) [4]: 0.10 | minimum inhibitory concentration (MIC) [5]: 0.39 | minimum inhibitory concentration (MIC) (Candida kefyr TIMM 0301): 0.78

CCC(C)C1OC(=O)C(C(C)(C)O)N(C)C(=O)C(CC(C)C)NC(=O)C(C(C)C)N(C)C(=O)C(C(C)C)NC(=O)C2CCCN2C(=O)C(Cc2ccccc2)N(C)C(=O)C(Cc2ccccc2)NC(=O)C(C(C)C)N(C)C1=O (stereo not drawn) [Compound 3] (cyclo([ξNMeVal(3-OH)][X1][NMeV]F[NMeF]PV[NMeV]L); configuration not given here)
minimum inhibitory concentration (MIC) [1]: 0.20 | minimum inhibitory concentration (MIC) [2]: 1.56 | minimum inhibitory concentration (MIC) [3]: 0.10 | minimum inhibitory concentration (MIC) [4]: 0.10 | minimum inhibitory concentration (MIC) [5]: 1.56 | minimum inhibitory concentration (MIC) (Candida kefyr TIMM 0301): 0.20

CCC(C)C1OC(=O)C(C(C)C)N(C)C(=O)C(CC(C)C)NC(=O)C(C(C)C)N(C)C(=O)C(C(C)C)NC(=O)C2CCCN2C(=O)C(Cc2ccccc2)N(C)C(=O)C(Cc2ccccc2)NC(=O)C(C(C)C)N(C)C1=O (stereo not drawn) [Compound 12] (cyclo([X1][NMeV]F[NMeF]PV[NMeV]L[NMeV]); configuration not given here)
minimum inhibitory concentration (MIC) [1]: > 25 | minimum inhibitory concentration (MIC) [2]: > 25 | minimum inhibitory concentration (MIC) [3]: 6.25 | minimum inhibitory concentration (MIC) [4]: 6.25 | minimum inhibitory concentration (MIC) [5]: 25 | minimum inhibitory concentration (MIC) (Candida kefyr TIMM 0301): 12.5
